Holding throughout (type): cell-based
One assay concerns PC3. Nature of the assay: CCK-8 cell proliferation assay in PC3 cells. The note with it: Homo sapiens, PC-3; PC3, CCK-8, 72 hours. For orientation: Tetrazolium dyes change colour on reduction, which living cells bring about.
For assay [1], the system named is A549 cells. Nature of the assay: PI staining cell cycle analysis of A549 cells. The conditions noted are these: A549, 50 μM. The procedure:
After 24 hours, the cells were harvested and fixed in cooled 70% ethanol, and then stained with propidium iodide containing 200 ug/mL RNase (Abcam, 139418) in the dark at 37° C. for 30 minutes. Each phase of the cell cycle was identified by using Accuri C6 Plus (BD Bioscience).

Assay [2] deals with A549 cells. Nature of the assay: Immunocytochemistry for cell senescence and multinucleation of A549 cells over time. The conditions noted are these: A549, 10 μM. From the text: ZEB1, which is an epithelial-mesenchymal transition (EMT) positive regulator, was used as an expression control.
Assay [3] has as its system A549 cells. Nature of the assay: Cell changes of TGFβ-stimulated A549 cells. The note with it: TGFβ-stimulated A549, 10 μM.
Assay [4] deals with A549 cells. Nature of the assay: NAD+/NADH colorimetric assay in A549 cell lysates. The procedure: To this end, total NAD was extracted and quantified from A549 cell lysates by using the NAD+/NADH Colorimetric Assay Kit (Abcam, ab65348) according to the manufacturer's protocol. 1×10^6 cells were lysed in 400 μL NAD/NADH extraction buffer, filtered through a 10 kD spin column (ab93349) and measured in pure water or 1/5 dilution. Briefly, the amount of total NAD was calculated by dividing the standard curve (pmol) by the sample volume (μL) added to the reaction wells and multiplying by the dilution factor.

On to `COc1ccc(-c2cc(=O)c3c(O)c(OC)c(OCCN4CCNC(=O)C4)cc3o2)cc1OC` [ONG41008], for which the IC50 in the assay with PC3 stood at 32 µM. Also, in the assay with A549 cells [1], the cell cycle arrest entry is recorded as “arrest of the G1-S-G2 phase”. Also, the “time of treatment with the greatest number of multinucleation” value in the assay on A549 cells [2] turned out to be 48 h. For the same molecule, in the assay with A549 cells [2] (24 hours), the cell flattening result is recorded as “clearly confirmed” and the multinucleation result is “multinucleation was also observed”. In the assay on A549 cells [3], the “day from which a significant portion of cells started to die” value stood at 6 days and the “day on which complete apoptosis was induced” value turned out to be 15 days. The NAD biosynthesis result with A549 cells [4] (A549) was “increased”. Besides, the “NAD/NADH ratio (change)” value in the assay with A549 cells [4] (A549, FIG. 7c) is given as “significantly increased”.

Broadly, the IC50 is the midpoint of a concentration-inhibition curve.

The record behind these values is patent US20240197722A1, “ANTICANCER COMPOSITION INDUCING CELL SENESCENCE AND CELL DEATH” (OSTEONEUROGEN INC., priority 2021, published 2024).
